The values that follow come from US7670784B2, “β-Benzyloxyaspartic acid derivatives having two substituents on their benzene rings” (Suntory Holdings Limited, priority 2004, dated 2010).

Each structure is given as a SMILES string.

One assay deals with T1, human EAAT3 (Homo sapiens, UniProt P43005).
T1 construct: expressed in transfected cells; host or cells: MDCK (Madin-Darby Canine Kidney) cells
T1 sequence (P43005 1-524): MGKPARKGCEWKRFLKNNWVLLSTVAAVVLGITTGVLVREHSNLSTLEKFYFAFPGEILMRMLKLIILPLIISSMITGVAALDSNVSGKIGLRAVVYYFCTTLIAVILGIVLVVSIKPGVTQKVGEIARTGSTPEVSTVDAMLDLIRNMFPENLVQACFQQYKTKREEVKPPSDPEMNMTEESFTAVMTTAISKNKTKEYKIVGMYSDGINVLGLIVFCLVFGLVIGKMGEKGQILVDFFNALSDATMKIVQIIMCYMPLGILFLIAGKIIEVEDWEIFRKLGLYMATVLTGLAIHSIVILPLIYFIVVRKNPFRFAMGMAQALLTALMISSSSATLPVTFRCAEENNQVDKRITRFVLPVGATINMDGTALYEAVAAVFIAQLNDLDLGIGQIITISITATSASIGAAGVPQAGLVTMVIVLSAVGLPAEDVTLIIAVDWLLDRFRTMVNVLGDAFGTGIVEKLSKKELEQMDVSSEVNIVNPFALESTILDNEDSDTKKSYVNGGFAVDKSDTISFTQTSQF
The assay is described as follows: [14C]glutamate uptake inhibition in human EAAT3 constitutively expressed in MDCK cells. It counts as cell-based. The following applies: 1 μM L-[14C]glutamate, 12 minutes incubation. As to the method: (§1) According to the known method (Shimamoto, K. et al., Mol. Pharmacol. 53, 195-201, 1998; Bioorg. Med. Chem. Lett. 10, 2407-2410, 2000), the inhibitory effect against [^14C]glutamate uptake was measured in human EAAT2 or EAAT3 constitutively expressed in MDCK (Madin-Darby Canine Kidney) cells. Glutamate uptake activity was determined as follows: 1 μM L-[^14C]glutamate and a sample at a given concentration were added and incubated for 12 minutes, followed by solubilizing the cells to measure incorporated radioactivity with a liquid scintillator. The amount of uptake was expressed as a percentage, assuming that uptake in the absence of a test compound (buffer alone) was set to 100% and uptake in a sodium-free solution was set to 0%.

The target in a further assay is T2, human EAAT2 (Homo sapiens, UniProt P43004).
T2 construct: expressed in transfected cells; host or cells: MDCK (Madin-Darby Canine Kidney) cells
The experiment in a line: [14C]glutamate uptake inhibition in human EAAT2 constitutively expressed in MDCK cells. Type of assay: cell-based. As to conditions: 1 μM L-[14C]glutamate, 12 minutes incubation. Here is the method:
as §1

The next assay deals with glutamate transporters. As to conditions: Shimamoto et al., Mol. Pharmacol. 65, 2004; cited from earlier work.

T2 sequence (P43004 whole entry): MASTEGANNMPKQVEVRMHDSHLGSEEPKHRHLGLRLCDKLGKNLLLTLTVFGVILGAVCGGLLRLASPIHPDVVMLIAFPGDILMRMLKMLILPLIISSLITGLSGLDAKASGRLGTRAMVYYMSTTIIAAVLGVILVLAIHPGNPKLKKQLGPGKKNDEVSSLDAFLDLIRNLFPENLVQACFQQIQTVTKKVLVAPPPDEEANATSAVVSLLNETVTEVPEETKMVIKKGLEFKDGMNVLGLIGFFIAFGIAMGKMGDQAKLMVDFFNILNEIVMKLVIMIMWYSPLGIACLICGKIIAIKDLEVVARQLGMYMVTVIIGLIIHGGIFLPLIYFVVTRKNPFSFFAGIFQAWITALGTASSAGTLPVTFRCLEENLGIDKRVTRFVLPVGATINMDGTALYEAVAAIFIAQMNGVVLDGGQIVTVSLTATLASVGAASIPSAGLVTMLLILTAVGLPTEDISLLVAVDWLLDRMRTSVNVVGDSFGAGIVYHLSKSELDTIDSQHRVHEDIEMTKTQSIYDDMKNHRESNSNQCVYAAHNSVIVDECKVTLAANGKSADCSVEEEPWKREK

For the molecule `N[C@H](C(=O)O)[C@H](OCc1ccccc1)C(=O)O` [L-TBOA, L-threo-β-benzyloxyaspartic acid, reference compound], the IC50 against human EAAT3 and against human EAAT2 was 1300 nM throughout.
In the case of `NCCOCCOCCOCCOCC(=O)NCCCCCC(=O)NCCCCCC(=O)Nc1cc(CO[C@H](C(=O)O)[C@H](N)C(=O)O)cc(NC(=O)c2ccc(C(F)(F)F)cc2)c1` [Compound 10, (2S,3S)-3-(3-(6-(6-(2-(2-(2-(2-(2-aminoethoxy)ethoxy)ethoxy)ethoxy)acetamido)hexanamido)hexanamido)-5-(4-(trifluoromethyl)benzamido)benzyloxy)aspartic acid], the IC50 (usually the concentration that gives 50% inhibition) was 805 nM against human EAAT3 and 23 nM against human EAAT2.
As to `N[C@H](C(=O)O)[C@H](OCc1cccc(NC(=O)c2ccc(C(F)(F)F)cc2)c1)C(=O)O` [TFB-TBOA], in the assay with glutamate transporters, the “IC50 value for uptake inhibitory activity” value is “in the order of nM”.
As for `N[C@H](C(=O)O)[C@H](OCc1cc(NC(=O)c2ccc(C(F)(F)F)cc2)cc(NC(=O)c2ccc(C(F)(F)F)cc2)c1)C(=O)O` [Compound 11, (2S,3S)-3-{3,5-bis[4-(trifluoromethyl)benzamido]benzyloxy}aspartic acid], the IC50 against human EAAT3 was determined as 0.46 nM; at human EAAT2 it was 1.3 nM.
Regarding `CCC(=O)Nc1cc(CO[C@H](C(=O)O)[C@H](N)C(=O)O)cc(NC(=O)c2ccc(C(F)(F)F)cc2)c1` [Compound 14, (2S,3S)-3-(3-propionylamido-5-[4-(trifluoromethyl)benzamido]benzyloxy)aspartic acid], the IC50 against human EAAT3 was 112 nM; against human EAAT2, 4.7 nM.
